Patent US20220400669A1, “COMPOUNDS AND METHODS FOR PROMOTING PLANT GROWTH” (King Abdullah University of Science and Technology, priority 2019, published 2022)
Entries after “also recorded” stand apart in the source; their conditions may differ.

Assays:
Assay type in all cases: in vivo
Striga hermonthica seeds = test: Striga hermonthica seed germination bioassay with root exudates of treated rice seedlings; conditions: for decrease of Striga seed germination rate: exudates of rice seedlings treated with 5 μM compound, Pi starvation (FIG. 2)
Description: For SL analysis, one-week-old seedlings were transferred into 50 ml falcon tubes (two seedlings per tube), containing half-strength Hoagland nutrient solution with K2HPO4.2H2O (+Pi), and grown in the biochamber for one week. Rice seedlings were then subjected to phosphate deficiency (−Pi) for another one week. On the day of root exudates collection, rice seedlings were first treated with 5 μM Zaxinone, or MZ compounds for 6 h, and then root exudates and root tissues were collected from each tube for LC-MS/MS analysis and Striga bioassays. Striga hermonthica seed germination bioassays were conducted by following the procedure as described previously. About 50-100 sterilized Striga seeds were spread on a glass fiber filter paper disc. Then 12 discs with Striga seeds were put on a sterilized filter paper, moistened with 3 ml sterilized water in a 90 mm petri plate. The plates were sealed with parafilm and cover with aluminum foil. All the plates were kept at 30° C. for 10 days for pre-conditioning. On 11th day, six dry discs with pre-conditioned seeds were selected and put in a 90 mm petri-dish. A filter paper ring moistened with 0.9 ml sterile MilliQ water was placed in the plate. The root exudates collected from Zaxinone or MZ compounds treated rice seedlings was applied at 50 μl on each six disc. Sterile MilliQ water and standard SL analog GR24 (2.5 μM) were included as a negative and positive control, respectively. After application, Striga seeds were incubated in dark at 30° C. for 24 hours. Germination (seeds with radicle emerging through seed coat) was scored under a binocular microscope, and germination rate (%) was calculated.

Striga hermonthica = Striga hermonthica infection of rice in pots; conditions: 5 μM, rice cv IAC-165 in pots with Striga infested soil (FIG. 13)
Description: Pots experiment was conducted and slightly adapted from the protocol as described previously About 20 mg (ca 8000) Striga seeds were thoroughly mixed in 1.5 L sand and soil mixture (1:1) and added in 3 L perforated plastic pot containing 0.5 L clean soil in the bottom. The pots were kept in greenhouse-controlled conditions at 35° C. under moisture to preconditioned Striga seeds for 10 days. On 11th day, one week old five rice seedlings (cv IAC165) were planted in each pot. After three days of rice planting, each pot was first irrigated with 250 ml phosphorus deficient Hoaglands nutrient solution and after four hours of irrigation 25 ml formulated MZ3, MZ5 and Zaxinone (100 μM) were sprayed. Next day, each pot was again supplied with 250 ml nutrient solution to make the final concentration of each compound to 5 μM and to move the compound to rice seedlings. Pots with and without Striga seeds were kept as the negative and positive control. Each compound was applied twice in a week up to four weeks. The rice plants were grown under normal growth condition (30° C., 70% RH) for eight weeks. The number of emerged Striga plants in each pot were counted.

[1] = tested on: Gigaspora margarita spores; test: Gigaspora margarita spores germination
Description: Spores were sterilized in a solution of Streptomycine sulphate (0.03% W/V) and Chloramine T (3% W/V) and germinated in 200 μl of MZ3 and MZ5 at 5 μM or 50 nM, GR24 10 nM or a solution of Water/Acetone (12.5 μl acetone in 25 ml water). For each treatments 96 sterilized spores were placed individually in the wells of a multi-well plate and treated with freshly prepared solutions at the beginning of the experiment and after 3 days. Spores were germinated in the dark at 30° C. and the germination rate was evaluated after 3 days and 7 days.

[2] = tested on: strigolactones (4-deoxyorobanchol, orobanchol) release; test: LC-MS/MS quantification of SLs in rice root exudates; conditions: 5 μM; for SL level of the root exudate: wild-type rice seedlings, Pi-starvation, 6 h, compared with Zaxinone (FIGS. 19, 20A-20B); for SL level / release in root exudates (4-DO, Oro): Pi starvation, in comparison with MZ1 and mock control (FIGS. 21A-21C)
Description: For SL analysis, one-week-old seedlings were transferred into 50 ml falcon tubes (two seedlings per tube), containing half-strength Hoagland nutrient solution with K2HPO4.2H2O (+Pi), and grown in the biochamber for one week. Rice seedlings were then subjected to phosphate deficiency (−Pi) for another one week. On the day of root exudates collection, rice seedlings were first treated with 5 μM Zaxinone, or MZ compounds for 6 h, and then root exudates and root tissues were collected from each tube for LC-MS/MS analysis and Striga bioassays.
For the quantification of SLs in rice root exudates, 50 ml of root exudates spiked with 0.672 ng of D6-5-deoxystrigol, was brought on a 500 mg/3 ml fast SPE C18 column preconditioned with 6 ml of methanol and 3 ml of water. After washing with 3 ml of water, SLs were eluted with 5 ml of acetone. The 4-deoxyorobanchol fraction (acetone-water solution) was concentrated to SL aqueous solution (˜500 μl), followed by the extraction with 1 ml of ethyl acetate. 750 μl of SLs enriched organic phase was then transferred to 1.5 ml tube and evaporated to dryness under vacuum. The dried extract was dissolved in 100 μl of acetonitrile:water (25:75, v:v) and filtered through a 0.22 µm filter for LC-MS/MS analysis.

[3] = tested on: SL biosynthesis genes D27, CCD7, CCD8, CO; test: qRT-PCR transcript analysis of SL biosynthesis genes in rice roots; conditions: 5 μM; for transcript levels of SL biosynthesis enzymes D27, CCD7, CCD8 and CO: wild-type rice seedlings, Pi-starvation, 6 h
Description: For transcript analysis, one-week-old seedlings were grown hydroponically in half-strength modified Hoagland nutrient solution with K2HPO4.2H2O (+Pi) and without K2HPO4.2H2O (+Pi) (−Pi) for 7 days. Seedlings were further treated with zaxinone or MZ compounds for 6 h, and tissues were collected.
Roots of rice seedling were ground and homogenized in liquid nitrogen, and total RNA was isolated using a Direct-zol RNA Miniprep Plus Kit following the manufacturer's instructions (ZYMO RESEARCH; USA). cDNA was synthesized from 1 μg of total RNA using iScript cDNA Synthesis Kit (BIO-RAD Laboratories, Inc, 2000 Alfred Nobel Drive, Hercules, Calif.; USA) according to the instructions in the user manual. The gene expression level was detected by real-time quantitative RT-PCR (qRT-PCR) which was performed using SYBR Green Master Mix (Applied Biosystems; www.lifetechnologies.com) in a CFX384 Touch™ Real-Time PCR Detection System (BIO-RAD Laboratories, Inc, 2000 Alfred Nobel Drive, Hercules, Calif.; USA). The gene expression level was calculated by normalization of a housekeeping gene in rice, Ubiquitin (OsUBQ) (Table 1). The relative gene expression level was calculated according to 2-^ΔΔCT method.

[4] = LC-MS analysis of rice plants fed with the mimics; conditions: data not shown; for conversion into the methoxy mimic (MZ3 or MZ5) in rice plants: rice plants fed with the mimic
wild-type rice plants = test: Rice phenotypes in soil (rhizotron system); conditions: 5 μM
Description: For testing MZ3 and MZ5 on rice phenotypes in the rhizotron system (48 cm×24 cm×5 cm), three-day-old seedlings were grown in soil with half-strength modified Hoagland nutrient solution containing 0.4 mM K2HPO4.2H2O (+Pi) and 5 μM zaxinone for two weeks. The solution was changed every other day, adding the chemical at each renewal. To increase the compounds stability, 1 μl/ml emulsifier (cyclohexanone+Atlas […] kindly provided by a person […] of CRODA, Gouda; The Netherlands) was added into Hoagland nutrient solution. Root surface area was analyzed with the ImageJ software.

[5] = roots and root exudates, Pi-starved WT rice, 6 hours

Which results are given for `CC(=O)/C=C/C=C(C)/C=C/C1=C(C)CC(O)CC1(C)C` (stereo in doubt) [Zaxinone, reference compound]?
decrease of Striga seed germination rate (Striga hermonthica seeds): around 29%; reduction of the number of emerging Striga plants compared to the untreated control (Striga hermonthica): 42%; spores germination ([1]; Zaxinone, after 3 and 7 days): did not affect

For `CC1=C[C@H](O/C=C2/C(=O)O[C@@H]3c4ccccc4C[C@H]23)OC1=O` [GR24, reference compound], which spore germination rate ([1]; GR24 10 nM) is on record?
The spore germination rate was “highest”.

With `CC(=O)/C=C/c1cccc(-c2ccc(O)cc2)c1` [MZ1] as the molecule, how does the “SL level of the root exudate” value [2] read?
The value was “did not show significant activity”.

Which “transcript levels of SL biosynthesis enzymes D27, CCD7, CCD8 and CO” value [3] does the source give for `CC(=O)/C=C/c1cccc(Oc2ccc(O)cc2)c1` [MZ2, (E)-4-(3-(4-hydroxyphenoxy)phenyl)but-3-en-2-one] here?
Its value is “downregulating; also recorded: reduced”.

What about the “SL level / release in root exudates (4-DO, Oro)” value [2] of the same molecule?
Its value is “significant decrease”.

What about the “SL level of the root exudate” value [2] of the same molecule?
Its value is “did not affect”.

What about the “conversion into the methoxy mimic (MZ3 or MZ5) in rice plants” value [4] of the same molecule?
Its value is “not detected”.

Which results are given for `CC(=O)c1cccc(-c2cccc(-c3ccc(O)cc3)c2)c1` [MZ4, 1-(4″-hydroxy-[1,1′:3′,1″-terphenyl]-3-yl)ethan-1-one]?
effect on Striga seed germination (Striga hermonthica seeds; exudates of rice plants treated at 5 μM, Pi starvation): did not suppress; transcript levels of SL biosynthesis enzymes D27, CCD7, CCD8 and CO [3]: downregulating; also recorded: reduced; SL level / release in root exudates (4-DO, Oro) [2]: tendency to reduce; SL level of the root exudate [2]: did not affect; conversion into the methoxy mimic (MZ3 or MZ5) in rice plants [4]: not detected

With `COc1ccc(-c2cccc(-c3cccc(C(C)=O)c3)c2)cc1` [MZ5] as the molecule, how does the “decrease of Striga seed germination rate” value (Striga hermonthica seeds) read?
Its value is ~46%.

And the “CCD7 and CO transcript level compared with Zaxinone” value ([3]; wild-type rice roots, Pi starvation, 6 h (FIGS. 12A-12D))?
Its value is “significantly lower”.

And the “transcript levels of SL biosynthesis enzymes D27, CCD7, CCD8 and CO” value [3]?
Its value is “pronounced decrease”.

And the “effect on 4-deoxyorobanchol relative to Zaxinone” value [2, 5]?
Its value is “significantly stronger”.

And the “effect on SL levels relative to Zaxinone” value [2, 5]?
The value was “reduced SL levels more than zaxinone”.

What about the “SL level of the root exudate” value [2] of the same molecule?
The value was “obvious effect”.

What about the “root surface area and root numbers of WT plants compared with zaxinone treatment” value (wild-type rice plants) of the same molecule?
The value was “increased more”.

And the “reduction of the number of emerging Striga plants compared to the untreated control” value (Striga hermonthica)?
Its value is 55%.

And the spore germination rate ([1]; 5 μM and 50 nM, 3 and 7 days)?
The spore germination rate was “no effect”.

What about the “presence in shoots of rice plants fed through roots” value [4] of the same molecule?
The value was “detected”.

For `CC(=O)c1cccc(-c2cccc(-c3cccc(-c4cccc(-c5ccc(O)cc5)c4)c3)c2)c1` [MZ6], which “SL level of the root exudate” value [2] is on record?
Its value is “did not show significant activity”.

Which “SL level of the root exudate” value [2] does the source give for `CC(=O)c1cccc(-c2cccc(-c3cccc(-c4cccc(-c5cccc(-c6ccc(C)cc6)c5)c4)c3)c2)c1` [MZ7] here?
The value was “did not show significant activity”.
